In this test the target is T1, human carbonic anhydrase II (hCAII) (Homo sapiens, UniProt P00918).
T1 construct: made in house
The test is described as follows: colorimetric endpoint measurement of hCAII-catalyzed pNPA hydrolysis. The note with it: for Ki: calculated from IC50 by Cheng–Prusoff equation, Km = 1092.5 µM for pNPA, [S] = 5.0 mM; for IC50: wild-type hCAII 500 nM, pNPA 5 mM, 50 mM Tris pH 7.4, 20–30 min in the dark, absorbance at 400 nm. The class given is biochemical. The text has this:
In order to determine the half-maximal inhibitory concentrations (IC50) and the inhibitory constants (Ki) towards hCAII for our library, we used a colorimetric endpoint measurement of the catalyzed pNPA hydrolysis (Figure 1a). Usually, a dansyl competition assay is employed for this purpose. However, as this assay is fluorescence-based and azobenzenes can quench fluorescence, this might cause a distortion in the obtained data. Furthermore, irradiation with UV light (i.e., λ = 280 nm for tryptophan excitation) can result in azobenzene-cis-isomerization, which could lead to different binding characteristics. Therefore, we aimed at the endpoint absorbance system described herein.
5. hCAII purification, crystallization and assay
5.1. Purification and crystallization
Wild-type human Carbonic Anhydrase II (hCAII) was expressed and purified as […]
previously reported. […]
5.2. Determination of half-maximal inhibitory concentration (IC50)
Approximately 1.0 mg of hCAII was dissolved in 100 µL of 50 mM Tris (pH 7.4) and diluted to a final concentration of 500 nM (concentration was determined in duplicates by absorbance spectroscopy) and mixed with the appropriate amount of blocker. The enzyme-blocker solution was then pipetted into a 96-well plate (white, clear flat bottom) containing pNPA for a final concentration of 5 mM. This was added simultaneously with a multi-well-pipette. After 20–30 min of incubation in the dark, the absorbance was measured using a plate reader at λ = 400 nm. Obtained data was background substracted and divided by data points of non-inhibited hCAII in order to obtain relative activity. The data points were fitted sigmoidal (eq. 1) or using the Hill equation (eq. 2) using IgorPro […]
All experiments were performed at least in triplicates. […]
y = base + [max / (1 + exp[(xhalf – x)/rate)]] (eq. 1) y = base + (max – base)/(1 + (xhalf / x)rate) (eq. 2)
5.3. Determination of inhibitory constants (Ki)
Inhibitory constants were determined using the Cheng–Prussow equation (eq. 3) with the obtained half-maximal inibitory constants (IC50) and with substrate concentration [S]
The Michaelis–Menten constant Km was obtained for this assay system independently and […]

With `NS(=O)(=O)c1ccc(/N=N/c2ccc(O)cc2)cc1` [1a], the Ki was 29.7 nM and the IC50 came out at 166 nM.

In the case of `CCN(CC)c1ccc(/N=N/c2ccc(S(N)(=O)=O)cc2)cc1` [1b], the inhibitory constant (Ki) is 25 nM and the IC50 came to 140 nM.

For `NS(=O)(=O)c1ccc(/N=N/c2ccc(N3CCOCC3)cc2)cc1` [1c], the Ki is 55.4 nM and the IC50 came to 309 nM.

`[N-]=[N+]=Nc1ccc(/N=N/c2ccc(S(N)(=O)=O)cc2)cc1` [1e]: the Ki is 46.1 nM and 257 nM corresponded to half-maximal inhibition (IC50).

For `Cc1ccc(/N=N/c2ccc(S(N)(=O)=O)cc2)cc1` [1f], the inhibition constant Ki was 65.1 nM and 363 nM corresponded to half-maximal inhibition (IC50).

As to `NS(=O)(=O)c1ccc(/N=N/c2ccc([N+](=O)[O-])cc2)cc1` [1g], the Ki is 28.6 nM and half-maximal inhibition (IC50) required 159 nM.

As to `NS(=O)(=O)c1ccc(/N=N/c2ccccc2)cc1` [1h], the Ki was 44.8 nM and it took 250 nM to reach half-maximal inhibition (IC50).

With `CCOC(=O)c1ccc(/N=N/c2ccc(S(N)(=O)=O)cc2)cc1` [1i, (E)-Ethyl 4-((4-sulfamoylphenyl)diazenyl)benzoate], the Ki was 30.1 nM and 168 nM corresponded to half-maximal inhibition (IC50).

As a reminder, the Ki is a measure of affinity in units of concentration, obtained from inhibition or displacement. For orientation: IC50 means the midpoint of a concentration-inhibition curve.

These data come from PMC4505086, “Azobenzene-based inhibitors of human carbonic anhydrase II” (Beilstein Journal of Organic Chemistry, 2015).
